Converted amounts (≈) assume the structure as drawn. Numbered stars: 1 amine (or outer) side, 2 acyl side, 3 side chain; on linkers, the order of the positions; unused ones are H or OH. Bridge positions count the residues as written; N and C are the ends. Square brackets hold non-standard residues; d marks the D form. Side chains are listed from the residue outwards. Peptide text beside a SMILES is read from it. I, II: the chains in the order shown. X2 = COc1cccc2[nH]c(C)c(C[C@H](N[*:1])C(=O)[*:2])c12; dAla(ψthiazole) = C[C@@H](N[*:1])c1nc(C(=O)[*:2])cs1; Trp(4-OMe) = COc1cccc2[nH]cc(C[C@H](N)C(=O)O)c12; X3 = O=C(c1csc([C@@H](CO)N[*:1])n1)[*:2]; dDab = NCC[C@@H](N)C(=O)O; Orn = NCCC[C@H](N)C(=O)O; dAbu = CC[C@@H](N)C(=O)O; Dab = NCC[C@H](N)C(=O)O; Dha = C=C(N)C(=O)O; Sar = CNCC(=O)O
system: Pseudomonas aeruginosa; assay: Downregulation of c-di-GMP level in Pseudomonas aeruginosa PA14 planktonic cells harboring wspR gene mutation at 50 uM incubated for 24 hrs by HPLC analysis; type: functional

| SMILES | Activity [%] |
| --- | --- |
| O=c1c2ccccc2[se]n1-c1ccccc1 [EBSELEN] | 80 |
| O=C1c2ccccc2[Se](=O)N1c1ccccc1 (centres undefined) | 80 |

system: Pseudomonas aeruginosa; assay: Antibacterial activity against Pseudomonas aeruginosa PAO1 assessed as reduction in bacterial growth; type: functional

| MIC [µM] | SMILES |
| --- | --- |
| > 200 | CC(=O)Oc1cccc(C(=O)NCCCC(CCCNC(=O)c2cccc(OC(C)=O)c2OC(C)=O)(CCCNC(=O)c2cccc(OC(C)=O)c2OC(C)=O)NC(=O)CCC(=O)N[C@@H](C(=O)N[C@@H]2C(=O)N3[C@@H]2SC(C)(C)[C@@H]3C(=O)O)c2ccccc2)c1OC(C)=O |
| > 200 | CC(=O)Oc1cccc(C(=O)NCCCC(CCCNC(=O)c2cccc(OC(C)=O)c2OC(C)=O)(CCCNC(=O)c2cccc(OC(C)=O)c2OC(C)=O)NC(=O)CCC(=O)N[C@@H](C(=O)N[C@@H]2C(=O)N3[C@@H]2SC(C)(C)[C@@H]3C(=O)O)c2ccc(O)cc2)c1OC(C)=O |

system: not listed separately; assay: Antagonist activity at Pseudomonas aeruginosa MvfR

| IC50 [µM] | SMILES |
| --- | --- |
| 0.3 | O=C(CSc1nc2cc([N+](=O)[O-])ccc2[nH]1)Nc1ccc(Oc2ccccc2)cc1 |
| 0.05 | CCCCCCCCCc1nc2cc(Cl)ccc2c(=O)n1N |

Further lines, the molecule ahead of its results:

| SMILES | IC50 [µM] |
| --- | --- |
| CC(C)(C)c1ccc(C(=O)NO)cc1 | 0.087 |
| Nc1nnc(-c2cccc(C(F)(F)F)c2)o1 | 0.25 |

system: Pseudomonas aeruginosa; assay: Antimicrobial activity against Pseudomonas aeruginosa assessed as reduction in bacterial growth; type: functional, organism-based

| MIC [µM] | MIC50 [mg/L] | SMILES | IC50 [mg/L] |
| --- | --- | --- | --- |
| 0.39 (≈ 0.505 µg/mL) |  | CC(=O)Oc1cccc(C(=O)NCCCC(CCCNC(=O)c2cccc(OC(C)=O)c2OC(C)=O)(CCCNC(=O)c2cccc(OC(C)=O)c2OC(C)=O)NC(=O)CCC(=O)N[C@@H](C(=O)N[C@@H]2C(=O)N3[C@@H]2SC(C)(C)[C@@H]3C(=O)O)c2ccccc2)c1OC(C)=O |  |
| 0.4 (≈ 1.81 µg/mL) |  | CC(C)C[C@H](NC(=O)[C@H](CCCCN)NC(=O)[C@H](CCCCNC(=O)[C@H](CC(C)C)NC(=O)[C@H](CCCCN)NC(=O)[C@H](CCCCNC(=O)[C@H](CC(C)C)NC(=O)[C@H](CCCCN)NC(=O)[C@H](CCCCNC(=O)[C@H](CC(C)C)NC(=O)[C@@H](N)CCCCN)NC(=O)[C@H](CC(C)C)NC(=O)[C@@H](N)CCCCN)NC(=O)[C@H](CC(C)C)NC(=O)[C@H](CCCCN)NC(=O)[C@H](CCCCNC(=O)[C@H](CC(C)C)NC(=O)[C@@H](N)CCCCN)NC(=O)[C@H](CC(C)C)NC(=O)[C@@H](N)CCCCN)NC(=O)[C@H](CC(C)C)NC(=O)[C@H](CCCCN)NC(=O)[C@H](CCCCNC(=O)[C@H](CC(C)C)NC(=O)[C@H](CCCCN)NC(=O)[C@H](CCCCNC(=O)[C@H](CC(C)C)NC(=O)[C@@H](N)CCCCN)NC(=O)[C@H](CC(C)C)NC(=O)[C@@H](N)CCCCN)NC(=O)[C@H](CC(C)C)NC(=O)[C@H](CCCCN)NC(=O)[C@H](CCCCNC(=O)[C@H](CC(C)C)NC(=O)[C@@H](N)CCCCN)NC(=O)[C@H](CC(C)C)NC(=O)[C@@H](N)CCCCN)C(N)=O (I: H-KLK([Leu-Lys])KLKKLKKL-NH2 / II: H-KLK([Leu-Lys])KLKKL / III: H-KLK([Leu-Lys])KL / IV: H-KLK([Leu-Lys])KL; amide I:6-IV:C, I:9-II:C, II:6-III:C) |  |
| 0.39 (≈ 0.511 µg/mL) |  | CC(=O)Oc1cccc(C(=O)NCCCC(CCCNC(=O)c2cccc(OC(C)=O)c2OC(C)=O)(CCCNC(=O)c2cccc(OC(C)=O)c2OC(C)=O)NC(=O)CCC(=O)N[C@@H](C(=O)N[C@@H]2C(=O)N3[C@@H]2SC(C)(C)[C@@H]3C(=O)O)c2ccc(O)cc2)c1OC(C)=O |  |
|  | 10 (≈ 6.44 µM) | CC[C@H](C)[C@@H]1NC(=O)[C@H](Cc2c[nH]c3ccccc23)NC(=O)[C@H]([C@@H](C)O)NC(=O)[C@@H]2CCCN2C(=O)[C@H]2CCCN2C(=O)[C@H](CO)NC(=O)[C@H](C)NC(=O)[C@H](CCN)NC(=O)[C@H](CCN)NC(=O)[C@H](Cc2c[nH]c3ccccc23)NC(=O)[C@H](CCN)NC(=O)[C@@H](CCN)NC(=O)[C@H](CCCN)NC(=O)[C@H](CCN)NC1=O [MUREPAVADIN] (cyclo(TWI[Dab][Orn][dDab][Dab]W[Dab][Dab]AS[dP]P)) |  |

More lines, now with the values behind:

| SMILES | MIC [µM] | MIC50 [mg/L] | IC50 [mg/L] |
| --- | --- | --- | --- |
| CCCCCCCCCCCCCB(O)O | 1 (≈ 0.228 µg/mL) |  |  |
| C=C1NC(=O)[C@@H](C)NC(=O)CNC(=O)[C@H](Cc2c[nH]c3cccc(OC)c23)NC(=O)[C@H](Cc2c[nH]c3ccccc23)NC(=O)c2csc(n2)[C@@H](CO)NC(=O)CN(C)C1=O (cyclo([Dha][Sar][X3]W[Trp(4-OMe)]G[dA])) |  |  | 5 (≈ 5.95 µM) |
| C=C1NC(=O)[C@@H](CC)NC(=O)CNC(=O)[C@H](Cc2c[nH]c3cccc(OC)c23)NC(=O)[C@H](Cc2c[nH]c3ccccc23)NC(=O)c2csc(n2)[C@@H](CO)NC(=O)CN(C)C1=O (cyclo([Dha][Sar][X3]W[Trp(4-OMe)]G[dAbu])) |  |  | 4 (≈ 4.68 µM) |
| C=C1NC(=O)[C@@H](CC)NC(=O)CNC(=O)[C@H](Cc2c(C)[nH]c3cccc(OC)c23)NC(=O)[C@H](Cc2c[nH]c3ccccc23)NC(=O)c2csc(n2)[C@@H](C)NC(=O)CN(C)C1=O (cyclo(W[X2]G[dAbu][Dha][Sar][dAla(ψthiazole)])) |  |  | 0.14 (≈ 0.164 µM) |

molecular target: Elastase (Pseudomonas aeruginosa (strain ATCC 15692 / PAO1 / 1C / PRS 101 / LMG12228), UniProt P14756); assay: Inhibition of Pseudomonas aeruginosa LasB elastase using aminobenzoyl-Ala-Gly-Leu-Ala-p-nitro-benzyl-amide as substrate b microtiter-based fluorimetric assay
Sequence (P14756 whole entry): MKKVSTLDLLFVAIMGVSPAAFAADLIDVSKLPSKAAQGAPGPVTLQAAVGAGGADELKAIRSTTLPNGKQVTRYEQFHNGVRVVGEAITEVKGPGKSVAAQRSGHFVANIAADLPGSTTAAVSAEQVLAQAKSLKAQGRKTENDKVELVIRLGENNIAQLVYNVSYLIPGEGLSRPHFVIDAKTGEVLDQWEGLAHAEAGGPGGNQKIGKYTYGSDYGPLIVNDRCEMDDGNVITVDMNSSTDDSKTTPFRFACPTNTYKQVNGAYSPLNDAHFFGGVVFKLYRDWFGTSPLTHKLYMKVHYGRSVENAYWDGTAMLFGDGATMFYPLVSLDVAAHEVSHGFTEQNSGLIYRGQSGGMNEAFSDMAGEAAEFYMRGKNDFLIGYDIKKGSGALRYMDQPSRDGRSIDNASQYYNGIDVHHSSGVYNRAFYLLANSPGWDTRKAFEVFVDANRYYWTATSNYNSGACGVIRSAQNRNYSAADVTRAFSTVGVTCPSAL

| SMILES | IC50 [µM] | Ki [µM] |
| --- | --- | --- |
| O=C(Nc1ccc(O)c(=O)cc1)Nc1cccc2ccccc12 | 1 |  |
| CC(=O)SCC(=O)Nc1cc(C)c(Br)cc1Cl | 6 |  |
| CC(C)C[C@H](NP(=O)(O)O[C@@H]1O[C@@H](C)[C@H](O)[C@@H](O)[C@H]1O)C(=O)N[C@@H](Cc1c[nH]c2ccccc12)C(=O)O [PHOSPHORAMIDON] |  | 0.057 |

From ChEMBL document CHEMBL5257018, “Novel Strategies for the Treatment of Pseudomonas aeruginosa Infections” (J Med Chem, 2016)
